Several values for one entry are separate records, joined by “and”; a condition that tells them apart may be missing. Equal values may be shown once. Toxic doses and inconclusive results are not listed. Rule for the calls: active = survival T/C of 150% or more; inactive = T/C below 125% in these data.
System: CD2F1 mice, L1210 leukemia ip, survival T/C
Assay: NCI In Vivo Anticancer Drug Screen. Data for tumor model L1210 Leukemia (intraperitoneal) in CD2F1 (CDF1) mice
Conditions: higher = longer survival
Method in brief: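 Compound-dosed mice with transplantable tumor versus matched vehicle controls; endpoint ratio T/C reported.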

[1] = endpoint: mean survival time, dose: 100.0 mg/kg/injection, schedule: Q04DX003 (ip), vehicle: saline with Tween-80
[2] = endpoint: mean survival time, dose: 200.0 mg/kg/injection, schedule: Q04DX003 (ip), vehicle: saline with Tween-80
[3] = endpoint: mean survival time, dose: 400.0 mg/kg/injection, schedule: Q04DX003 (ip), vehicle: saline with Tween-80
[4] = endpoint: mean survival time, dose: 100.0 mg/kg/injection, schedule: Q01DX001 (ip), vehicle: saline with Tween-80
[5] = endpoint: mean survival time, dose: 200.0 mg/kg/injection, schedule: Q01DX001 (ip), vehicle: saline with Tween-80
[6] = endpoint: mean survival time, dose: 400.0 mg/kg/injection, schedule: Q01DX001 (ip), vehicle: saline with Tween-80
[7] = endpoint: mean survival time, dose: 100.0 mg/kg/injection, schedule: Q01DX009 (ip), vehicle: saline with Tween-80
[8] = endpoint: mean survival time, dose: 200.0 mg/kg/injection, schedule: Q01DX009 (ip), vehicle: saline with Tween-80
[9] = endpoint: mean survival time, dose: 400.0 mg/kg/injection, schedule: Q01DX009 (ip), vehicle: saline with Tween-80
[10] = endpoint: mean survival time, dose: 100.0 mg/kg/injection, schedule: Q01DX009 (ip), vehicle: saline
[11] = endpoint: mean survival time, dose: 200.0 mg/kg/injection, schedule: Q01DX009 (ip), vehicle: saline

Measured: T/C

Cc1cccc(OP(=O)(c2ccccc2)c2ccccc2)c1
inactive: [1] 98 % of control | [2] 98 % of control | [3] 103 % of control

N#Cc1ncc(-c2ccccc2)nc1C#N
inactive: [4] 91 % of control | [5] 92 % of control | [6] 105 % of control

CC(=O)c1ccc(NCN2C(=O)c3ccccc3C2=O)cc1
inactive: [7] 96 % of control | [8] 98 % of control | [9] 98 % of control

CCC(=O)Nc1ccc(C)c(Cl)c1
inactive: [7] 95 % of control | [1] 96 % of control | [8] 95 % of control | [2] 95 % of control | [9] 104 % of control | [3] 97 % of control

CCCCCCCCCC/C(C)=N/Nc1ccc([N+](=O)[O-])cc1[N+](=O)[O-]
inactive: [4] 94 % of control | [5] 89 % of control | [6] 93 % of control

OC(c1ccccc1)c1ccccc1
inactive: [10] 91 % of control | [11] 91 % of control | endpoint: mean survival time, dose: 400.0 mg/kg/injection, schedule: Q01DX009 (ip), vehicle: saline 91 % of control

COC(=O)C1(C)CCCC2(C)C1CCC13OCC(CC21)C1(C(C)C)OC31 (stereo unspecified)
inactive: [1] 101 % of control | [2] 100 % of control | [3] 95 % of control

CC1Oc2ccccc2OC1C(=O)NN (stereo unspecified)
inactive: [7] 92 % of control | [8] 94 % of control | [9] 94 % of control

C1COC2(CCC3(CC2)OCCO3)O1
inactive: [7] 102 % of control | endpoint: mean survival time, dose: 100.0 mg/kg/injection, schedule: Q04DX003 (ip), vehicle: saline sonified 101 % of control | [8] 102 % of control | endpoint: mean survival time, dose: 200.0 mg/kg/injection, schedule: Q04DX003 (ip), vehicle: saline sonified 101 % of control | [9] 103 % of control | endpoint: mean survival time, dose: 400.0 mg/kg/injection, schedule: Q04DX003 (ip), vehicle: saline sonified 100 % of control

CCCCCCCCCCCCNC1=CC(=O)c2nccnc2C1=O
inactive: endpoint: mean survival time, dose: 6.25 mg/kg/injection, schedule: Q01DX009 (ip), vehicle: saline with Tween-80 98 % of control | endpoint: mean survival time, dose: 12.5 mg/kg/injection, schedule: Q01DX009 (ip), vehicle: saline with Tween-80 95 % of control | endpoint: mean survival time, dose: 25.0 mg/kg/injection, schedule: Q01DX009 (ip), vehicle: saline with Tween-80 91 % of control | endpoint: mean survival time, dose: 50.0 mg/kg/injection, schedule: Q01DX009 (ip), vehicle: saline with Tween-80 91 % of control | [7] 95 % of control

COC(=O)C1(C)CCCC2(C)C1CCC1(O)C2CC2OC2(C(C)C)C1O (stereo unspecified)
inactive: [7] 102 % of control | [1] 97 % of control | [8] 96 % of control | [2] 93 % of control | [9] 98 % of control | [3] 87 % of control

COC(c1ccccc1)C(c1ccccc1)[N+]1(C)CCCCC1 (stereo unspecified)
inactive: endpoint: mean survival time, dose: 75.0 mg/kg/injection, schedule: Q01DX001 (ip), vehicle: saline 97 % of control | endpoint: mean survival time, dose: 150.0 mg/kg/injection, schedule: Q01DX001 (ip), vehicle: saline 113 % of control | endpoint: mean survival time, dose: 300.0 mg/kg/injection, schedule: Q01DX001 (ip), vehicle: saline 97 % of control

O=C(O)c1cccc(F)c1Cl
inactive: endpoint: mean survival time, dose: 100.0 mg/kg/injection, schedule: Q04DX002 (ip), vehicle: saline with Tween-80 95 % of control | endpoint: mean survival time, dose: 200.0 mg/kg/injection, schedule: Q04DX002 (ip), vehicle: saline with Tween-80 102 % of control

CC(C)OC(=O)c1cc([N+](=O)[O-])cc([N+](=O)[O-])c1Sc1ncnc2nc[nH]c12
inactive: endpoint: mean survival time, dose: 0.63 mg/kg/injection, schedule: Q01DX005 (ip), vehicle: other 115 % of control | endpoint: mean survival time, dose: 1.25 mg/kg/injection, schedule: Q01DX005 (ip), vehicle: other 118 % of control | endpoint: mean survival time, dose: 2.5 mg/kg/injection, schedule: Q01DX005 (ip), vehicle: other 115 % of control
active: endpoint: mean survival time, dose: 18.8 mg/kg/injection, schedule: Q01DX005 (ip), vehicle: other 156 % of control

CN(C)NC=O
inactive: endpoint: mean survival time, dose: 100.0 mg/kg/injection, schedule: Q04DX002 (ip), vehicle: saline 101 % of control | endpoint: mean survival time, dose: 200.0 mg/kg/injection, schedule: Q04DX002 (ip), vehicle: saline 101 % of control | endpoint: mean survival time, dose: 400.0 mg/kg/injection, schedule: Q04DX002 (ip), vehicle: saline 101 % of control

CN(N=O)P(=O)(Nc1ccccc1)Nc1ccccc1
inactive: endpoint: mean survival time, dose: 25.0 mg/kg/injection, schedule: Q04DX003 (ip), vehicle: other 101 % of control | endpoint: mean survival time, dose: 50.0 mg/kg/injection, schedule: Q04DX003 (ip), vehicle: other 98 % of control | endpoint: mean survival time, dose: 100.0 mg/kg/injection, schedule: Q04DX003 (ip), vehicle: other 103 % of control

O=P(O)(O)OCC1OC(n2cnc3c(NCc4ccco4)ncnc32)C(O)C1O (stereo unspecified)
inactive: endpoint: mean survival time, dose: 12.5 mg/kg/injection, schedule: Q01DX005 (ip), vehicle: water 106 % of control | endpoint: mean survival time, dose: 25.0 mg/kg/injection, schedule: Q01DX005 (ip), vehicle: water 106 % of control | endpoint: mean survival time, dose: 50.0 mg/kg/injection, schedule: Q01DX005 (ip), vehicle: water 103 % of control | endpoint: mean survival time, dose: 100.0 mg/kg/injection, schedule: Q01DX005 (ip), vehicle: water 106 % of control

NCCCCCCN=C(N)C(N)=NCCCCCCN
inactive: endpoint: mean survival time, dose: 3.13 mg/kg/injection, schedule: Q04DX002 (ip), vehicle: saline 116 % of control | endpoint: mean survival time, dose: 6.25 mg/kg/injection, schedule: Q04DX002 (ip), vehicle: saline 90 % of control | endpoint: mean survival time, dose: 12.5 mg/kg/injection, schedule: Q04DX002 (ip), vehicle: saline 101 % of control

COCC1OC2OC3C(COC)OC(OC4C(COC)OC(OC5C(COC)OC(OC6C(COC)OC(OC7C(COC)OC(OC8C(COC)OC(OC1C(O)C2O)C(O)C8O)C(O)C7O)C(O)C6O)C(O)C5O)C(O)C4O)C(O)C3O (stereo unspecified) (tested in a mixture with another compound)
inactive: endpoint: mean survival time, dose: 25.0 mg/kg/injection, schedule: Q01DX009 (ip), vehicle: Klucel (hydroxypropylcellulose) (HPC) 98 % of control | endpoint: mean survival time, dose: 50.0 mg/kg/injection, schedule: Q01DX009 (ip), vehicle: Klucel (hydroxypropylcellulose) (HPC) 98 % of control | endpoint: mean survival time, dose: 100.0 mg/kg/injection, schedule: Q01DX009 (ip), vehicle: Klucel (hydroxypropylcellulose) (HPC) 94 % of control | endpoint: mean survival time, dose: 200.0 mg/kg/injection, schedule: Q01DX009 (ip), vehicle: Klucel (hydroxypropylcellulose) (HPC) 96 % of control | endpoint: mean survival time, dose: 400.0 mg/kg/injection, schedule: Q01DX009 (ip), vehicle: Klucel (hydroxypropylcellulose) (HPC) 93 % of control

COC(=O)c1cccc(O)c1O
inactive: endpoint: mean survival time, dose: 100.0 mg/kg/injection, schedule: Q04DX002 (ip), vehicle: other 98 % of control | endpoint: mean survival time, dose: 200.0 mg/kg/injection, schedule: Q04DX002 (ip), vehicle: other 92 % of control | endpoint: mean survival time, dose: 400.0 mg/kg/injection, schedule: Q04DX002 (ip), vehicle: other 95 % of control

O=c1nc(N2CCSCC2)ccn1C1OC(CO)C(O)C1O (stereo unspecified)
inactive: endpoint: median survival time, dose: 12.5 mg/kg/injection, schedule: Q01DX005 (ip), vehicle: water 100 % of control | endpoint: median survival time, dose: 25.0 mg/kg/injection, schedule: Q01DX005 (ip), vehicle: water 101 % of control | endpoint: median survival time, dose: 50.0 mg/kg/injection, schedule: Q01DX005 (ip), vehicle: water 102 % of control | endpoint: median survival time, dose: 100.0 mg/kg/injection, schedule: Q01DX005 (ip), vehicle: water 101 % of control | endpoint: median survival time, dose: 200.0 mg/kg/injection, schedule: Q01DX005 (ip), vehicle: water 103 % of control

CCCC(=O)O
inactive: endpoint: mean survival time, dose: 1.25 mg/kg/injection, schedule: Q01DX009 (ip), vehicle: saline 96 % of control | endpoint: mean survival time, dose: 12.5 mg/kg/injection, schedule: Q01DX009 (ip), vehicle: saline 98 % of control | endpoint: mean survival time, dose: 25.0 mg/kg/injection, schedule: Q01DX009 (ip), vehicle: saline 96 % of control and 100 % of control | endpoint: mean survival time, dose: 50.0 mg/kg/injection, schedule: Q01DX009 (ip), vehicle: saline 96 % of control and 97 % of control | [10] 97 % of control and 100 % of control | endpoint: mean survival time, dose: 100.0 mg/kg/injection, schedule: Q04DX003 (ip), vehicle: saline 102 % of control | [11] 95 % of control and 107 % of control | endpoint: mean survival time, dose: 200.0 mg/kg/injection, schedule: Q04DX003 (ip), vehicle: saline 102 % of control | endpoint: mean survival time, dose: 400.0 mg/kg/injection, schedule: Q04DX003 (ip), vehicle: saline 105 % of control

O.O=C(O)C(Cc1ccc(O)cc1)N=Cc1c(O)cncc1COP(=O)(O)O.[Cu] (stereo unspecified)
inactive: endpoint: mean survival time, dose: 12.5 mg/kg/injection, schedule: Q01DX001 (ip), vehicle: saline with Tween-80 95 % of control | endpoint: mean survival time, dose: 25.0 mg/kg/injection, schedule: Q01DX001 (ip), vehicle: saline with Tween-80 103 % of control | endpoint: mean survival time, dose: 50.0 mg/kg/injection, schedule: Q01DX001 (ip), vehicle: saline with Tween-80 98 % of control

Source: PubChem BioAssay AID256 (DTP/NCI, 2004)
